According to patent US9902725B2, “Heterocyclic derivatives as RORgamma modulators” (GENFIT, priority 2014, dated 2018):

target: T1, RORγt ligand-binding domain (RORγt-LBD) (Homo sapiens, UniProt P51449); assay: Time-resolved FRET (TR-FRET) RORγt coactivator assay; format: biochemical; settings: GST-RORγ-LBD, biotinylated RIP140 peptide, coactivator displacement
T1 construct: 20 nM recombinantly expressed RORγ-LBD fused to GST
T1 sequence (P51449 269-508 limits assumed): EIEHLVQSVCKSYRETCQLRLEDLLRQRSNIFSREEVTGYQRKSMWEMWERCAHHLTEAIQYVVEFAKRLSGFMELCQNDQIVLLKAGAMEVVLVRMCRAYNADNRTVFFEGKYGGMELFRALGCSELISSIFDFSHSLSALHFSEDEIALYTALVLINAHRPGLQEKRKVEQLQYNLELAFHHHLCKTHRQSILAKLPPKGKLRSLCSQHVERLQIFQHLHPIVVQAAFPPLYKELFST
Text: Time-resolved FRET (TR-FRET) RORγt coactivator assay was used to identify RORγ modulator compounds with ligand-dependent coactivator displacement. The assay uses a d2-labeled anti-GST antibody, synthetic N-terminally biotinylated peptide which is derived from nuclear receptor coactivator protein RIP140, and a RORγt ligand-binding domain (RORγt-LBD) that is tagged with glutathione-S-transferase (GST). The influence of compounds on the RORγ-peptide interaction relies on the binding dependent energy transfer from a donor to an acceptor fluorophore attached to the binding partner of interest. […] For reduction of background from compound fluorescence, TR-FRET method makes use of generic fluorophore labels and time resolved detection.
The assays were done in a final volume of 20 μl in a 384 well plate in a CHAPS buffer (2 mM CHAPS; 1 mM DTT, 2 mM EDTA; 0.1% BSA), containing 20 nM recombinantly expressed RORγ-LBD fused to GST, 30 nM N-terminally biotinylated peptide, 1 nM streptavidin-terbium conjugate and 20 nM d2 labeled-anti-GST. Test compounds were diluted using 10 mM stock solution. The range of the final compound concentrations used in this test was from 0.3 nM to 30 μM (logarithmic scale). DMSO content of the samples was kept at 1%. The assay was equilibrated for 2 hours in the dark at room temperature in 384 well plates (Falcon). The signal was detected by an Ultra384 reader (TECAN). The results were visualized by plotting the ratio between the emitted light at 665 nm and 620 nm. A basal level of RORγ-peptide formation is observed in the absence of added compound. Compounds that promote coactivator displacement induce a concentration-dependent decrease in time-resolved fluorescent signal. Data were collected and analyzed using GraphPad Prism software (GraphPad Software V5.02, San Diego Calif. USA). IC50 in μM and Emax in % were reported for each compound.

SMILES	IC50
CCOC(=O)CCCC(=O)c1c[nH]c2ccc(CC(=O)NC(c3ccccc3)c3ccccc3N3CCCCC3)cc12 (centres unmarked) [Cpd. 214, ethyl 5-oxo-5-{5-[({phenyl[2-(piperidin-1-yl)phenyl]methyl}carbamoyl)methyl]-1H-indol-3-yl}pentanoate]	1000 to 10000 nM
CCCCC(NC(=O)Cc1ccc2[nH]cc(CCC(=O)OC(C)(C)C)c2c1)c1ccccc1N(CC)CC (centres unmarked) [Cpd. 218, tert-butyl 3-{5-[({1-[2-(diethylamino)phenyl]pentyl}carbamoyl)methyl]-1H-indol-3-yl}propanoate]	1000 to 10000 nM
COC(=O)Cc1c[nH]c2ccc(CC(=O)NC(c3ccccc3)c3ccc(C)cc3Br)cc12 (centres unmarked) [Cpd. 220, methyl 2-[5-({[(2-bromo-4-methylphenyl)(phenyl)methyl]carbamoyl}methyl)-1H-indol-3-yl]acetate]	< 1000 nM
COC(=O)Cc1c[nH]c2ccc(CC(=O)NC(c3ccc(C)s3)c3ccc(C)cc3C)cc12 (centres unmarked) [Cpd. 222, methyl 2-[5-({[(2,4-dimethylphenyl)(5-methylthiophen-2-yl)methyl]carbamoyl}methyl)-1H-indol-3-yl]acetate]	1000 to 10000 nM
COC(=O)Cc1c[nH]c2ccc(CC(=O)NC(c3ccccc3)c3ccccc3N3CCOCC3)cc12 (centres unmarked) [Cpd. 224, methyl 2-{5-[({[2-(morpholin-4-yl)phenyl](phenyl)methyl}carbamoyl)methyl]-1H-indol-3-yl}acetate]	< 1000 nM
Cc1ccc(C(NC(=O)Cc2ccc3[nH]cc(CCC(=O)OC(C)(C)C)c3c2)c2ncccn2)c(Br)c1 (centres unmarked) [Cpd. 226, tert-butyl 3-[5-({[(2-bromo-4-methylphenyl)(pyrimidin-2-yl)methyl]carbamoyl}methyl)-1H-indol-3-yl]propanoate]	< 1000 nM
Cc1ccc(C(NC(=O)Cc2ccc3[nH]cc(CCC(=O)OC(C)(C)C)c3c2)c2ccccc2)c2[nH]ccc12 (centres unmarked) [Cpd. 228, tert-butyl 3-[5-({[(4-methyl-1H-indol-7-yl)(phenyl)methyl]carbamoyl}methyl)-1H-indol-3-yl]propanoate]	1000 to 10000 nM
CCCCC(NC(=O)Cc1ccc2[nH]cc(CCC(=O)OC(C)(C)C)c2c1)c1ccc(C)cc1N1CCCCC1 (centres unmarked) [Cpd. 230, tert-butyl 3-{5-[({1-[4-methyl-2-(piperidin-1-yl)phenyl]pentyl}carbamoyl)methyl]-1H-indol-3-yl}propanoate]	1000 to 10000 nM
CC(C)(C)OC(=O)CCc1c[nH]c2ccc(CC(=O)NC(c3ccccc3)c3ccccc3N3CCCC(F)(F)C3)cc12 (centres unmarked) [Cpd. 232, tert-butyl 3-{5-[({[2-(3,3-difluoropiperidin-1-yl)phenyl](phenyl)methyl}carbamoyl)methyl]-1H-indol-3-yl}propanoate]	< 1000 nM
CC(C)(C)OC(=O)NC(=N)NC(=O)CCc1c[nH]c2ccc(CC(=O)NC(c3ccccc3)c3ccccc3N3CCCCC3)cc12 (centres unmarked) [Cpd. 234, tert-butyl N-[(3-{5-[({phenyl[2-(piperidin-1-yl)phenyl]methyl}carbamoyl)methyl]-1H-indol-3-yl}propanamido)methanimidoyl]carbamate]	1000 to 10000 nM
CCOC(=O)CCc1n[nH]c2ccc(CC(=O)NC(c3ccccc3)c3ccccc3N3CCCCC3)cc12 (centres unmarked) [Cpd. 236, ethyl 3-{5-[({phenyl[2-(piperidin-1-yl)phenyl]methyl}carbamoyl)methyl]-1H-indazol-3-yl}propanoate]	< 1000 nM
COC(=O)Cc1c[nH]c2ccc(CC(=O)NC(c3ccccc3)c3cccc(N4CCCCC4)c3)cc12 (centres unmarked) [Cpd. 238, methyl 2-{5-[({phenyl[3-(piperidin-1-yl)phenyl]methyl}carbamoyl)methyl]-1H-indol-3-yl}acetate]	1000 to 10000 nM
CC(C)CC(NC(=O)Cc1ccc2[nH]cc(CCC(=O)OC(C)(C)C)c2c1)c1ccccc1OC(C)C (centres unmarked) [Cpd. 240, tert-butyl 3-{5-[({3-methyl-1-[2-(propan-2-yloxy)phenyl]butyl}carbamoyl)methyl]-1H-indol-3-yl}propanoate]	< 1000 nM
CCOc1ccc(C(NC(=O)Cc2ccc3[nH]cc(CCC(=O)OC(C)(C)C)c3c2)c2ccccc2)c(OCC)c1 (centres unmarked) [Cpd. 246, tert-butyl 3-[5-({[(2,4-diethoxyphenyl)(phenyl)methyl]carbamoyl}methyl)-1H-indol-3-yl]propanoate]	< 1000 nM
Cc1ccc(C(CC(C)C)NC(=O)Cc2ccc3[nH]cc(CCC(=O)OC(C)(C)C)c3c2)c(OC(C)C)c1 (centres unmarked) [Cpd. 248, tert-butyl 3-{5-[({3-methyl-1-[4-methyl-2-(propan-2-yloxy)phenyl]butyl}carbamoyl)methyl]-1H-indol-3-yl}propanoate]	1000 to 10000 nM
Cc1ccc(C(NC(=O)Cc2ccc3[nH]cc(CCC(=O)OC(C)(C)C)c3c2)c2ccccc2)c(N2CCCCCC2)c1 (centres unmarked) [Cpd. 250, tert-butyl 3-{5-[({[2-(azepan-1-yl)-4-methylphenyl](phenyl)methyl}carbamoyl)methyl]-1H-indol-3-yl}propanoate]	< 1000 nM
Cc1cc(C(NC(=O)Cc2ccc3[nH]cc(CCC(=O)OC(C)(C)C)c3c2)c2ccccc2N2CCCCC2)oc1C (centres unmarked) [Cpd. 252, tert-butyl 3-[5-({[(4,5-dimethylfuran-2-yl)[2-(piperidin-1-yl)phenyl]methyl]carbamoyl}methyl)-1H-indol-3-yl]propanoate]	1000 to 10000 nM
Cc1ccc(C(NC(=O)Cc2ccc3[nH]cc(CCC(=O)OC(C)(C)C)c3c2)c2ccccc2OC(C)C)o1 (centres unmarked) [Cpd. 254, tert-butyl 3-[5-({[(5-methylfuran-2-yl)[2-(propan-2-yloxy)phenyl]methyl]carbamoyl}methyl)-1H-indol-3-yl]propanoate]	< 1000 nM
COC(=O)Cc1c[nH]c2ccc(CC(=O)NC(c3ncccn3)c3ccc(C)cc3Br)cc12 (centres unmarked) [Cpd. 256, methyl 2-[5-({[(2-bromo-4-methylphenyl)(pyrimidin-2-yl)methyl]carbamoyl}methyl)-1H-indol-3-yl]acetate]	1000 to 10000 nM
C#CCC(NC(=O)Cc1ccc2[nH]cc(CCC(=O)OC(C)(C)C)c2c1)c1ccccc1N1CCCCC1 (centres unmarked) [Cpd. 260, tert-butyl 3-{5-[({1-[2-(piperidin-1-yl)phenyl]but-3-yn-1-yl}carbamoyl)methyl]-1H-indol-3-yl}propanoate]	1000 to 10000 nM
Cc1ccc(Cl)c(C(NC(=O)Cc2ccc3[nH]cc(CCC(=O)O)c3c2)c2ccccc2)c1 (centres unmarked) [compound 42, 3-[5-({[(2-chloro-5-methylphenyl)(phenyl)methyl]carbamoyl}methyl)-1H-indol-3-yl]propanoic acid]	< 1000 nM
Cc1cc(Br)ccc1C(NC(=O)Cc1ccc2[nH]cc(CCC(=O)O)c2c1)c1ccccc1 (centres unmarked) [compound 44, 3-[5-({[(4-bromo-2-methylphenyl)(phenyl)methyl]carbamoyl}methyl)-1H-indol-3-yl]propanoic acid]	< 1000 nM
Cc1cc(F)ccc1C(NC(=O)Cc1ccc2[nH]cc(CCC(=O)O)c2c1)c1ccccc1 (centres unmarked) [compound 46, 3-[5-({[(4-fluoro-2-methylphenyl)(phenyl)methyl]carbamoyl}methyl)-1H-indol-3-yl]propanoic acid]	< 1000 nM
Nc1ccccc1C(NC(=O)Cc1ccc2[nH]cc(CCC(=O)O)c2c1)c1ccccc1 (centres unmarked) [compound 52, 3-[5-({[(2-aminophenyl)(phenyl)methyl]carbamoyl}methyl)-1H-indol-3-yl]propanoic acid]	1000 to 10000 nM
CN(C)c1ccccc1C(NC(=O)Cc1ccc2[nH]cc(CCC(=O)O)c2c1)c1ccccc1 (centres unmarked) [compound 54, 3-{5-[({[2-(dimethylamino)phenyl](phenyl)methyl}carbamoyl)methyl]-1H-indol-3-yl}propanoic acid]	< 1000 nM
O=C(O)CCc1c[nH]c2ccc(NC(=O)NC(c3ccccc3)c3ccccc3N3CCCCC3)cc12 (centres unmarked) [compound 56, 3-{5-[({phenyl[2-(piperidin-1-yl)phenyl]methyl}carbamoyl)amino]-1H-indol-3-yl}propanoic acid]	< 1000 nM
CC(C)CC(NC(=O)Cc1ccc2[nH]cc(CCC(=O)O)c2c1)c1ccccc1N1CCOCC1 (centres unmarked) [compound 58, 3-{5-[({3-methyl-1-[2-(morpholin-4-yl)phenyl]butyl}carbamoyl)methyl]-1H-indol-3-yl}propanoic acid]	< 1000 nM
NC(=O)c1ccc(C(NC(=O)Cc2ccc3[nH]cc(CCC(=O)O)c3c2)c2ccccc2)c(N2CCCC2)c1 (centres unmarked) [compound 63, 3-{5-[({[4-carbamoyl-2-(pyrrolidin-1-yl)phenyl](phenyl)methyl}carbamoyl)methyl]-1H-indol-3-yl}propanoic acid]	1000 to 10000 nM
O=C(O)Cc1c[nH]c2ccc(CC(=O)NC(c3ccccc3)c3ccc(Br)cc3N3CCCC3)cc12 (centres unmarked) [compound 67, 2-{5-[({[4-bromo-2-(pyrrolidin-1-yl)phenyl](phenyl)methyl}carbamoyl)methyl]-1H-indol-3-yl}acetic acid]	< 1000 nM
